Read-outs that look alike come from different tables or passages of the source.
Columns and labels:
[1] = target: T1, human 5-HT1A (Homo sapiens, UniProt P08908); assay: 5-HT1AR binding ([3H]-8-OH-DPAT), HEK293; conditions: read-out: serotonin 5-HT1A % inhibition at 1 microM
T1 construct: expressed in transfected cells
T1 sequence (P08908 1-422): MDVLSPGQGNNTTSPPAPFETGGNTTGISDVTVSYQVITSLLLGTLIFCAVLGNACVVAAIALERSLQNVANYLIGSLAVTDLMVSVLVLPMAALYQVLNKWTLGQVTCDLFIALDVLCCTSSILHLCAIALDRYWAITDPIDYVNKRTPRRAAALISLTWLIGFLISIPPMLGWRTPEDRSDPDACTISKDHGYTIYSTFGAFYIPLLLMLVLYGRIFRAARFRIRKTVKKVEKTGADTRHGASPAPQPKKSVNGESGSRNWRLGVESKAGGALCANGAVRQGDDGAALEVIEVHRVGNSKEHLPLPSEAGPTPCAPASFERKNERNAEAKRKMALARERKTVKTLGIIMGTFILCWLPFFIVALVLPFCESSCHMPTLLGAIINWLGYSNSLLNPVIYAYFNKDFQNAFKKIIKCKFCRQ
Experimental: 3. Selectivity screen of PZ-1922
For membrane preparation,
EDTA and 1 mM dithiothreitol.
The composition of the assay buffers was
reader (PerkinElmer, USA).
The results were expressed as the %
www.eurofinsdiscovery.com.

[2] = Chemical stability (hydrolysis, oxidation); conditions: acidic and basic hydrolysis (0.5 M HCl and 0.5 M NaOH at 60 °C) and oxidizing conditions (10% H2O2 at room temperature)
[3] = Preliminary pharmacokinetics in male Wistar rats, plasma and brain; format: in vivo; conditions: rat; for MRT: read-out: MRT mean residence time (converted)
[4] = system: oAβ25–35-induced memory deficits in rats; assay: oAβ25–35-induced memory deficits in T-maze test in rats; format: in vivo, rat
Experimental: For the AD model, adult male Sprague–Dawley rats (Janvier Lab., France) weighing 260–280 g (8 weeks) at the beginning of the experiments were housed 1 week before experiments in a standard animal facility of the University of Montpellier (CECEMA, registration number E34-172-23) (12/12 h light/dark cycle with lights on at 07:00; 21 ± 1 °C, food and water ad libitum). All experiments, including sacrifices, were performed in conscious rats between 09:00 and 12:00, during the diurnal period of the circadian rhythm. Male has been preferred over female because the latter may present a confounding factor of the estrous cycle, a parameter that needs to be systematically controlled. Animal procedures were conducted in strict adherence to the European Union Directive of 2010 (2010/63/EU). The National French Animal Welfare Committee and the local committee at the University of Montpellier approved all protocols (authorization: CEEA-LR-12160). All efforts were made to minimize the number of animals used, potential pain, suffering, and distress.
As previously detailed,[37],[64] to induce the acute model of AD (oAβ25–35 model), rats were divided into three groups. One group had no surgery (Naive group), a second set of animals received an intracerebroventricular (icv) injection of incubated scrambled peptide (negative control groups—10 μg/rat—Sc), and a third set received an icv injection of oAβ25–35 (AD groups—10 μg/rat—Aβ). The animals were anesthetized with an intraperitoneal (ip) injection of a mixture of ketamine and xylazine (80 and 10 mg/kg b.w., respectively). Scrambled peptide and oAβ25–35 were injected directly into the lateral ventricles at a rate of 2 μL/min using a David-Kopf stereotaxic apparatus (coordinates of injection: AP −1 mm, L ±1.5 mm, DV −3.5 mm).
1—A curative approach: This treatment was started 1 week after the induction of amyloid toxicity (icv injection of oAβ25–35) and consisted of 2 ip injections (1.5 mg/kg per injection) per day for 1 week. On day 14, animals were subjected to a behavioral memory test (T-maze) and sacrificed on day 15 by decapitation.
2—A preventive approach: This treatment was started at the same time as the induction of amyloid toxicity and consisted of implanting ip, and during the same anesthetic procedure necessary for the icv injection of oAβ25–35, an osmotic pump (Alzet-EML2, Charles-River, France) which continuously delivered the molecules for 1 week at the dose of 3 mg/kg/day. On day 7, animals were submitted to a behavioral memory test (T-maze) and sacrificed on day 8 by decapitation.
As previously reported, the T-maze test was used to rapidly assess cognitive ability in rats, especially the short-term memory deficits, when performed in two successive sessions.[37],[38],[64],[65] The T-maze consisted of two short arms (A and B), extending from a longer alley (C) and enclosed with high walls. The test involved two trials, separated by 1 h. During the training session, one short arm (B) was closed. Rats were placed at the end of the long alley, allowed to visit the maze for 10 min, and then returned to their home cage. […] The number of visits and time spent in each arm were measured. The results were expressed as the ratio of the time spent in the initially closed novel arm, over the time spent in the previous arm, and as a ratio of the number of entries into the novel arm over the familiar one. […]

[5] = male, Wistar, po, 3 mg/kg intragastric, plasma
[6] = male, Wistar, 3 mg/kg intravenous, plasma

Which results are given for `Cl.Clc1cccc(Cn2ccc3c(N4CCNCC4)nc4ccccc4c32)c1` [PZ-1922, 1-(3-Chlorobenzyl)-4-(piperazin-1-yl)-1H-pyrrolo[3,2-c]quinoline Hydrochloride]?
inhibition at 1 µM [1]: 3%; chemical stability [2]: chemically stable; MRT ([3]; male, Wistar, po, 3 mg/kg intragastric, brain): 4.58 h; AUC(0-t) [3, 5]: 224 ng·h/mL; Cmax [3, 5]: 38.6 ng/mL; Tmax [3, 5]: 2 h; MRT [3, 5]: 3.93 h; MRT ([3]; male, Wistar, 3 mg/kg intravenous, brain): 2.83 h; AUC(0-t) [3, 6]: 467 ng·h/mL; clearance ([3]; male, Wistar, 3 mg/kg intravenous, plasma, read-out: Cl clearance): 39.2 mL/min/kg; MRT [3, 6]: 3.48 h; AUC0→t ([3]; 3 mg/kg intragastric, brain): 42186 ng·min/g; AUC0→t ([3]; 3 mg/kg intravenous, brain): 170827 ng·min/g; effect on oAβ25–35-induced memory deficits in T-maze, curative treatment ([4]; 1.5 mg/kg ip twice a day for 7 days, started 1 week after icv oAβ25–35): effectively reversed the memory deficits; effect on oAβ25–35-induced memory deficits in T-maze, preventive treatment ([4]; 3 mg/kg/day by ip osmotic pump for 1 week, concomitant with icv oAβ25–35): prevented the emergence of cognitive deficits; In vivo effective dose, T maze test in rats after oAB administration, preventive treatment ([4]; preventive treatment): 3 mg/kg

Reference: article PMC10641814 (Journal of Medicinal Chemistry, 2023)
